In patent US7767665B2, “1,3-benzothiazinone derivatives and use thereof” (Takeda Pharmaceutical Company Limited, priority 2001, dated 2010):
Structures can show the parent of a compound that is named as a salt.

SMILES	melting point
CC(=O)NCc1cccc(-c2nc(=O)c3ccccc3s2)n1 [Example 204, N-[[6-(4-Oxo-4H-1,3-benzothiazin-2-yl)-2-pyridyl]methyl]ace tamide]	199.2 to 200.4 °C
CSc1cc(CCC(=O)O)cc(-c2nc(=O)c3ccccc3s2)n1 [Example 342, 3-[2-(Methylthio)-6-(4-oxo-4H-1,3-benzothiazin-2-yl)-4-pyridyl]propionic acid]	235.5 to 236.5 °C
O=c1nc(-c2cccc(-c3cnco3)n2)sc2ccccc12 [Example 195]	271.3 to 272.7 °C
CS(=O)(=O)c1ccc(-c2nc(=O)c3ccccc3s2)cn1 [Example 262, 2-[6-(Methylsulfonyl)-3-pyridyl]-4H-1,3-benzothiazine-4-one]	205 to 207 °C
O=C(NCc1cccc(-c2nc(=O)c3ccccc3s2)n1)c1ccccc1 [Example 207, N-[[6-(4-Oxo-4H-1,3-benzothiazin-2-yl)-2-pyridyl]methyl]benzamide]	213.9 to 214.7 °C
CSc1ccnc(-c2nc(=O)c3ccccc3s2)c1 [Example 298, 2-[4-(Methylthio)-2-pyridyl]-4H-1,3-benzothiazine-4-one]	213 to 214 °C
CN(C)C(=O)NCc1cccc(-c2nc(=O)c3ccccc3s2)n1 [Example 216, N,N-Dimethyl-N′-[[6-(4-oxo-4H-1,3-benzothiazin-2-yl)-2-pyridyl]methyl]urea]	175.2 to 176.3 °C
O=c1nc(-c2cccc(-c3ccccn3)n2)sc2ccccc12 [Example 199, 2-[6-(2,2′-Bipyridyl)]-4H-1,3-benzothiazine-4-one]	222.1 to 223.9 °C
CC(C)(C)OC(=O)CCOCCCc1ccnc(-c2nc(=O)c3ccccc3s2)c1 [Example 101, tert-Butyl 3-[3-[2-(4-oxo-4H-1,3-benzothiazin-2-yl)-4-pyridyl]propoxy]propanoate]	81.1 to 82.2 °C
CC(C)(C)OC(=O)CSc1cccc(-c2nc(=O)c3ccccc3s2)n1 [Example 275, tert-Butyl {[6-(4-oxo-4H-1,3-benzothiazin-2-yl)-2-pyridyl]thio}acetate]	169.5 to 170 °C
C[S+]([O-])c1ccc(-c2nc(=O)c3ccccc3s2)cn1 (stereo not drawn) [Example 261, 2-[6-(Methylsulfinyl)-3-pyridyl]-4H-1,3-benzothiazine-4-one]	195 to 196.5 °C
CC(C)(C)OC(=O)CCc1ccc(-c2nc(=O)c3ccccc3s2)nc1 [Example 327, tert-Butyl 3-[6-(4-oxo-4H-1,3-benzothiazin-2-yl)-3-pyridyl]propanoate]	160 to 161 °C
Cl.O=c1nc(-c2cc(C3CCCN3)ccn2)sc2ccccc12 (stereo not drawn)	219.4 to 221.4 °C
O=c1nc(-c2ccc3ccccc3n2)sc2ccccc12 [Example 3, 2-(2-Quinolinyl)-4H-1,3-benzothiazine-4-one]	262.7 to 263.4 °C
O=c1nc(-c2ccccn2)sc2ccc(OCc3ccccc3)cc12 [Example 121, 6-(Benzyloxy)-2-(2-pyridyl)-4H-1,3-benzothiazine-4-one]	198 to 198.8 °C
CC(C)(C)OC(=O)CCOCCCc1cccc(-c2nc(=O)c3ccccc3s2)n1 [Example 66, tert-Butyl 3-{3-[6-(4-oxo-4H-1,3-benzothiazin-2-yl)-2-pyridyl]propoxy}propanoate]	71 to 71.9 °C
Cc1cc(CCC(=O)OC(C)(C)C)nc(-c2nc(=O)c3ccccc3s2)c1 [Example 189, tert-Butyl 3-[4-methyl-6-(4-oxo-4H-1,3-benzothiazin-2-yl)-2-pyridyl]propanoate]	168.5 to 169.3 °C
CCOc1ccc(-c2nc(=O)c3ccccc3s2)cn1 [Example 91, 2-(6-Ethoxy-3-pyridyl)-4H-1,3-benzothiazine-4-one]	152.3 to 156.2 °C
O=c1nc(-c2ccnc(-c3ccccc3)c2)sc2ccccc12 [Example 75, 2-(2-Phenyl-4-pyridyl)-4H-1,3-benzothiazine-4-one]	162.7 to 163 °C
CC(C)(C)OC(=O)CS(=O)(=O)c1cccc(-c2nc(=O)c3ccccc3s2)n1 [Example 280, tert-Butyl {[6-(4-oxo-4H-1,3-benzothiazin-2-yl)-2-pyridyl]sulfonyl}acetate]	159 to 160 °C
NCc1cccc(-c2nc(=O)c3ccccc3s2)n1 (as salt: trifluoroacetic acid salt) [Example 203, 2-[6-(Aminomethyl)-2-pyridyl]-4H-1,3-benzothiazine-4-one trifluoroacetic acid salt]	184.5 to 186.5 °C
O=c1nc(-c2cccc(-c3ccco3)n2)sc2ccccc12 [Example 194, 2-[6-(2-Furyl)-2-pyridyl]-4H-1,3-benzothiazine-4-one]	217.9 to 218.4 °C
O=C(O)CCOCCc1cccc(-c2nc(=O)c3ccccc3s2)n1 [Example 335, 3-[2-(6-(4-Oxo-4H-1,3-benzothiazin-2-yl)-2-pyridyl)ethoxy]propionic acid]	236.6 to 236.7 °C
O=c1nc(-c2cccc(CSCc3ccccc3)n2)sc2ccccc12 [Example 255, 2-[6-[(Benzylthio)methyl]-2-pyridyl]-4H-1,3-benzothiazine-4-one]	126 to 128 °C

SMILES	melting point
O=c1nc(-c2cnc3ccccc3c2)sc2ccccc12 [Example 4, 2-(3-Quinolinyl)-4H-1,3-benzothiazine-4-one]	216 to 217 °C
CN(Cc1ccccc1)c1cc(-c2nc(=O)c3ccccc3s2)ccn1 [Example 71, 2-[2-(N-Benzyl-N-methylamino)-4-pyridyl]-4H-1,3-benzothiazine-4-one]	145.9 to 146.6 °C
CN(CC(=O)OC(C)(C)C)c1cncc(-c2nc(=O)c3ccccc3s2)n1 [Example 291, tert-Butyl {methyl[6-(4-oxo-4H-1,3-benzothiazin-2-yl)-2-pyrazinyl]amino}acetate]	189 to 190.5 °C
O=c1nc(-c2cccc(N3CCN(c4ccccc4)CC3)n2)sc2ccccc12 [Example 62, 2-[6-(4-Phenyl-1-piperazinyl)-2-pyridyl]-4H-1,3-benzothiazine-4-one]	245.8 °C (dec.)
CC(C)S(=O)(=O)c1cccc(-c2nc(=O)c3ccccc3s2)n1 [Example 152, 2-[6-(Isopropylsulfonyl)-2-pyridyl]-4H-1,3-benzothiazine-4-one]	205 to 206 °C
O=c1nc(-c2cccc([S+]([O-])Cc3ccccc3)n2)sc2ccccc12 (stereo not drawn) [Example 160, 2-(6-Benzylsulfinyl-2-pyridyl)-4H-1,3-benzothiazine-4-one]	208.5 to 210 °C
Cc1ccc(Sc2cccc(-c3nc(=O)c4ccccc4s3)n2)cc1 [Example 46, 2-{6-[(4-methylphenyl)thio]-2-pyridyl}-4H-1,3-benzothiazine-4-one]	176.9 to 178.4 °C
O=C(O)CN1CCN(c2ccnc(-c3nc(=O)c4ccccc4s3)c2)C1=O [Example 324, [2-Oxo-3-[2-(4-oxo-4H-1,3-benzothiazin-2-yl)-4-pyridyl]-1-imidazolidinyl]acetic acid]	271 to 273 °C
CCCCOc1ccc2sc(-c3ccccn3)nc(=O)c2c1 [Example 116, 6-Butoxy-2-(2-pyridyl)-4H-1,3-benzothiazine-4-one]	160.9 to 161.8 °C
Cc1cc(C)c2sc(-c3cccc(CCCOCCC(=O)OC(C)(C)C)n3)nc(=O)c2c1 [Example 87]	105.3 to 107.3 °C
O=c1nc(-c2cccc(CN3CCCCC3)n2)sc2ccccc12 [Example 266, 2-[6-(1-Piperidinomethyl)-2-pyridyl]-4H-1,3-benzothiazine-4-one]	162 to 163 °C
CN(CC(=O)O)c1cncc(-c2nc(=O)c3ccccc3s2)n1 [Example 292, {Methyl[6-(4-oxo-1,3-benzothiazin-2-yl)-2-pyrazinyl]amino}acetic acid]	283 °C (dec.)
CCOC(=O)CCCCCOc1ccc(-c2nc(=O)c3ccccc3s2)cn1 [Example 96, Ethyl 6-{[5-(4-oxo-4H-1,3-benzothiazin-2-yl)-2-pyridyl]oxy}hexanoate]	73.6 to 73.9 °C
O=c1nc(-c2ccccn2)sc2cc(Br)ccc12 [Example 241, 7-Bromo-2-(2-pyridyl)-4H-1,3-benzothiazine-4-one]	230.7 to 232.2 °C
Cc1csc(-c2nc(=O)c3ccccc3s2)n1 [Example 349, 2-(4-Methyl-1,3-thiazol-2-yl)-4H-1,3-benzothiazin-4-one]	209.6 to 210.7 °C
Cc1ccc(-c2nc(=O)c3ccccc3s2)n1C [Example 16, 2-(1,5-Dimethyl-1H-pyrrol-2-yl)-4H-1,3-benzothiazine-4-one]	194.3 to 195.7 °C
O=C(O)CCCCc1cccc(-c2nc(=O)c3ccccc3s2)n1 [Example 304, 5-[6-(4-Oxo-4H-1,3-benzothiazin-2-yl)-2-pyridyl]valeric acid]	161.9 to 162.3 °C
CN(C)CCSc1cncc(-c2nc(=O)c3ccccc3s2)n1 [Example 297]	160.5 °C (dec.)
O=c1nc(-c2ccc(N3CCOCC3)nc2)sc2ccccc12 [Example 35, 2-[6-(4-Morpholino)-3-pyridyl]-4H-1,3-benzothiazine-4-one]	232.6 to 234.4 °C
COc1ccc2c(=O)nc(-c3cccc(CCC(=O)OC(C)(C)C)n3)sc2c1 [Example 173, tert-Butyl 3-[6-(7-methoxy-4-oxo-4H-1,3-benzothiazin-2-yl)-2-pyridyl]propanoate]	134.5 to 135.4 °C
O=c1nc(-c2cccc(CCCO)n2)sc2ccccc12 [Example 302, 2-[6-(3-Hydroxypropyl)-2-pyridyl]-4H-1,3-benzothiazine-4-one]	145.5 to 146 °C
O=c1nc(-c2cccc([S+]([O-])CCc3ccccc3)n2)sc2ccccc12 (stereo not drawn) [Example 162, 2-[6-(2-Phenylethylsulfinyl)-2-pyridyl]-4H-1,3-benzothiazine-4-one]	164.5 to 165.5 °C
CS(=O)(=O)c1ccnc(-c2nc(=O)c3ccccc3s2)c1 [Example 300, 2-[4-(Methylsulfonyl)-2-pyridyl]-4H-1,3-benzothiazine-4-one]	300 to 301 °C
Cc1cc(CCC(=O)OC(C)(C)C)cc(-c2nc(=O)c3ccc(Cl)cc3s2)n1 [Example 320, tert-Butyl 3-[2-(7-chloro-4-oxo-4H-1,3-benzothiazin-2-yl)-6-methyl-4-pyridyl]propanoate]	186.4 to 187.6 °C
